According to article PMC10313368 (The Journal of Clinical Investigation, 2023):
“And” between values parts separate entries of the source, which are not always exact repeats. Identical values can stand only once.

What was measured:
[1] = test system: retinal ganglion cells (RGCs); assay: Retinal histology (H&E), RBPMS staining and quantitation of RGCs, ONL/INL thickness after intraocular injection; assay type: in vivo, mouse
HIF-2α = HIF-2α (Homo sapiens, UniProt Q99814); assay: Immunoblot of HIF-2α accumulation in D120 hiPSC-derived retinal organoids in 1% O2; assay type: cell-based; design: endogenous in cells; conditions: 1% O2 12 hours, 32-134D
Experimental: An hiPSC line derived from CD34^+ cord blood was used in this study (A18945, Thermo Fisher Scientific) ([70]). Undifferentiated hiPSCs and derived retinal organoids were routinely tested for mycoplasma contamination by PCR. Cell culture, retinal differentiation, and organoid formation were conducted as previously described ([71]). Retinal organoids at D120 were used for experiments.
Immunoblot assays. Cells, neurosensory retina, and D120 retinal organoid lysates were subjected
to 4–15% gradient SDS/PAGE (Invitrogen). Immunoblot (Western blot or WB) assays were
performed as previously described (1). […]

[2] = test system: differentially expressed genes (DEGs) in OIR mice; assay: Bulk RNA-Seq of neurosensory retina of OIR mice; assay type: in vivo, mouse
Excerpt: Bulk RNAseq. P17 mouse pups from non-OIR (control), OIR injected with DMSO (vehicle) at P12 […]
enucleated, and their retinas separated from the RPE/choroid. Total RNA was isolated using miRNeasy mini kit (QIAGEN). RNA was quantified using Nanodrop (ND-1000 spectrophotometer; Thermo Scientific). The RNA samples were sequenced by Novogene […]
Raw data (fastq files), data quality control, and genome alignment were generated by Novogene company. DESeq2 (6) was used for differentially expressed genes (DEG) analysis. Genes with adjusted P < 0.05 and log2 fold change > 1 were identified as DEGs. Normalized counts were used to produce clustering heatmaps and “complete” was the default method in the clustering analysis.
Gene Ontology (GO) analysis (biological process) was done using DAVID Bioinformatics Resources (7, 8). FDR < 0.05 was used as the threshold for enriched biological process. […]

[3] = test system: HIF-regulated angiogenic mediators; assay: mRNA expression of HIF-regulated vasoactive mediators in OIR mouse retina (qPCR); assay type: in vivo
Experimental: Reverse transcription and quantitative real-time PCR. Total RNA was isolated from cultured cells or retinas with PureLinkTM RNA Mini Kit (Invitrogen #12183025), and cDNA was prepared with MuLV Reverse Transcriptase (Applied Biosystems). Quantitative real-time PCR was performed with Power SYBR Green PCR Master Mix (Applied Biosystems) and MyiQ Real-Time PCR Detection System (Bio-Rad). Normalization was done using cyclophilin A for mouse tissue and human cell lines. Primers are listed in Supplemental Table 2. […]
Animal studies. Eight-week-old pathogen-free female C57BL/6 mice were obtained from The Jackson Laboratory (JAX). Timed pregnant C57BL/6 mice were obtained from Charles River Laboratories. Mice heterozygous for HIF-1α have been previously described (2). Mice heterozygous for HIF-2α (strain number: 003266; common name: EPAS1 KO) were purchased […]
OIR mouse model. OIR experiments were performed as previously described (1, 3). Briefly, C57BL/6 mice were placed in 75% O2 on P7. On P12, the mice were returned to room air and were […]
(or vehicle) by intravitreal injection. Mice with body weight less than 6 g at P17 were excluded […]
from analysis. Data were collected from both males and females and the results were combined since there was no apparent difference between sexes. Representative images for selected time points from a minimum of three independent experiments are shown. Data from 3-8 pups were obtained at each time point. […]
Intraperitoneal (IP) injections. […]
intraperitoneally using an insulin syringe in OIR pups. […]
the peritoneal cavity of neonatal C57BL/6 mice and STZ mice at indicated times, and the retinal vasculature and lysates for WB and qPCR were assessed at P17.
Intraocular injections. Intravitreal injections were performed with a PLI-100A Pico-liter Microinjector (Warner Instruments, Harvard Bioscience) using pulled-glass micropipettes. Each micropipette was calibrated to deliver a 1 μl volume on depression of a foot switch. The mice were anesthetized with a ketamine (100 mg/kg) and xylazine (5mg/kg) mixture, and under a dissecting microscope, the sharpened tip of the micropipette was passed through the sclera just posterior to the limbus into the vitreous cavity and the foot switch was depressed, which caused fluid to […]

[4] = OIR mice P17, single intraocular 32-134D 70 ng/μL at P12
[5] = OIR+32-134D i.p. 20mg/kg, Figure 10C, replicates, 20 mg/kg
[6] = OIR+32-134D i.p. 20mg/kg, Figure 10D, replicates, 20 mg/kg
[7] = S Figure 4B, OIR mice, 14ng I.V., replicates
[8] = S Figure 4B, OIR mice, 70ng I.V., replicates

Sequence of HIF-2α (Q99814 whole entry): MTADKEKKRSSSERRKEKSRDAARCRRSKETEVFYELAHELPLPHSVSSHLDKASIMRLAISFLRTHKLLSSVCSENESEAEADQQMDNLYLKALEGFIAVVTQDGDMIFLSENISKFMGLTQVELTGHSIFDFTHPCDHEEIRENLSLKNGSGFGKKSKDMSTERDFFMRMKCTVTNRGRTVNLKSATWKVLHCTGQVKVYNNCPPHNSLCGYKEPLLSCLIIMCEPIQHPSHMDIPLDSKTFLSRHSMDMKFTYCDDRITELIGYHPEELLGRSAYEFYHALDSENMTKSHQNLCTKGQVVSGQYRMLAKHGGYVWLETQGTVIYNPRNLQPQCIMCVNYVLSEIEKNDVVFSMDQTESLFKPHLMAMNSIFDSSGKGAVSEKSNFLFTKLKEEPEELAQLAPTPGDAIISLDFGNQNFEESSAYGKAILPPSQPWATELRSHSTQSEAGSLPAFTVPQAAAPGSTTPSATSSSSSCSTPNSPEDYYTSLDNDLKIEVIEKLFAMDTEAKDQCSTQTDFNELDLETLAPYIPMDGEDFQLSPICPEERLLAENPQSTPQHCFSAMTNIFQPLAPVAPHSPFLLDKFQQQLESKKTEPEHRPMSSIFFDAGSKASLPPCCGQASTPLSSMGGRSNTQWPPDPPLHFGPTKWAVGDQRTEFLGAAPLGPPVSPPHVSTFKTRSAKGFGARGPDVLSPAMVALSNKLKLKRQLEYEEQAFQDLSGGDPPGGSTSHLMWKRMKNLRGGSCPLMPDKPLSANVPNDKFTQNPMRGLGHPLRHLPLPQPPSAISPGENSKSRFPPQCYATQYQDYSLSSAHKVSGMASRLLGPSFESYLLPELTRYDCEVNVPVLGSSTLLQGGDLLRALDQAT

## Brc1ccc2c(-c3csc(-c4c[nH]c5c(Br)cccc45)n3)c[nH]c2c1 [32-134D, 4-(6-bromo-1H-indol-3-yl)-2-(7-bromo-1H-indol-3-yl)thiazole]
[1]; 32-134D 210 or 350 ng intraocular, 35 days
  retinal histology including GCL: normal histology
[1]; 32-134D at the highest doses tested, 35 days
  number of RGCs on retinal flat mounts (in words): unaffected
[1]; 32-134D single dose 350 ng, 5 weeks
  ONL or INL thickness versus vehicle (in words): failed to demonstrate any changes
[1]; 32-134D, mice
  therapeutic window following intraocular administration: wide therapeutic window
HIF-2α
  accumulation of HIF-2α protein: effectively prevented accumulation
[2]; [4]
  reduction in downregulated DEGs: 93%
  reduction in upregulated DEGs: 71%
[2]; OIR mice P17, single intraocular 32-134D 70 ng/μL at P12, 250 in untreated OIR
  upregulated DEGs compared with non-OIR (control) mice: 73
[2]; OIR mice P17, single intraocular 32-134D 70 ng/μL at P12, 768 in untreated OIR
  downregulated DEGs compared with non-OIR (control) mice: 52
[2]; OIR mice, 32-134D intraocular
  top 37 upregulated DEGs of 4 biological functions (inflammation, angiogenesis, hypoxia, vasculogenesis): normalization
[3]; 5 consecutive (P12–P16) i.p. injections 20 mg/kg 32-134D
  mRNA expression of key HIF-regulated vasoactive mediators in OIR mice (in words): marked reduction
[3]; Figure 14B, OIR mice, 14ng I.V., individual replicates
  Vegfa mRNA: 2.554 and 2.472 and 2.429
[3]; Figure 14B, OIR mice, 70ng I.V., individual replicates
  Vegfa mRNA: 1.453 and 1.941 and 2.696
[3]; OIR mice P17, single intraocular 32-134D (70 ng, Supplemental Figure 4) at P12
  other key HIF-regulated angiogenic genes including Kdr, Angptl4, Epo, Serpine1 (in words): moderate reduction
[3]; [5]
  Angptl4 mRNA: 1.959 and 1.886 and 1.828
  Epo mRNA: 15.9268 and 13.6786 and 15.0565
  Pdgfb mRNA: 7.756 and 6.2199 and 6.871
  Vegfa mRNA: 4.717 and 4.578 and 4.299
[3]; [6]
  Angpt2 mRNA: 1.455 and 1.394 and 1.541
  Kdr mRNA: 1.28 and 1.296 and 1.315
  Ptprb mRNA: 1.109 and 1.093 and 1.12
  Serpine1 mRNA: 18.6807 and 17.1616 and 18.3924
[3]; [7]
  Angptl4 mRNA: 1.665 and 1.591 and 1.559
  Epo mRNA: 8.623 and 9.0589 and 6.546
  Kdr mRNA: 1.18 and 1.183 and 1.04
  Serpine1 mRNA: 4.654 and 4.995 and 4.51
[3]; [8]
  Angptl4 mRNA: 1.678 and 1.5898 and 1.693
  Epo mRNA: 5.752 and 6.783 and 6.508
  Kdr mRNA: 1.345 and 1.2643 and 1.301
  Serpine1 mRNA: 6.417 and 6.411 and 5.108
[3]; single intraocular injection 32-134D 14 ng at P12
  Vegfa mRNA expression in OIR mice (in words): moderate reduction
